One may read the IC50 as the concentration needed to halve the response being measured.

The first assay deals with T1, mTOR (Homo sapiens, UniProt P42345).
T1 construct: mTOR protein was isolated from HeLa cell cytoplasmic extract by immunoprecipitation; endogenous in cells; host or cells: HeLa cell cytoplasmic extract (immunoprecipitate)
Description: Biological Assay: mTOR enzyme activity, mTOR immunoprecipitated from HeLa cell cytoplasmic extract, recombinant PHAS-1 as substrate. The format is biochemical. To be noted: Biological Assay, upper bounds; read-out: IC50 values against mTOR.
Description: For mTOR enzyme activity assays, mTOR protein was isolated from HeLa cell cytoplasmic extract by immunoprecipitation, and activity determined essentially as described previously using recombinant PHAS-1 as a substrate (ref. 21).
Regarding `C[C@@H]1CN(c2nc(N3CCOCC3)c3ccc(Nc4ccncc4)nc3n2)C[C@H](C)O1` [Example 2ba], the IC50 is under 100 nM.
For `C[C@@H]1CN(c2nc(N3CCOCC3)c3ccc(-c4cccc(N5CCOCC5)c4)nc3n2)C[C@H](C)O1` [Example 1as], the IC50 was under 1000 nM.
As for `C[C@@H]1CN(c2nc(N3CCOCC3)c3ccc(Nc4cc(F)c(F)cc4[N+](=O)[O-])nc3n2)C[C@H](C)O1` [Example 2ac], the IC50 is under 1000 nM.
As for `C[C@@H]1CN(c2nc(N3CCOCC3)c3ccc(Nc4oc(-c5ccccc5)cc4C#N)nc3n2)C[C@H](C)O1` [Example 2ap], the IC50 was under 1000 nM.
Regarding `CCC1CCCCN1c1nc(N2CCOCC2)c2ccc(-c3ccc(OC)c(CO)c3)nc2n1` (stereo not drawn) [Example 1bc], the IC50 was under 100 nM.
`C[C@@H]1CN(c2nc(N3CCOCC3)c3ccc(-c4ccc(C=O)s4)nc3n2)C[C@H](C)O1` [Example 1ap]: the IC50 is under 1000 nM.
Same read-out and setting: the same measure for `COc1ccc(-c2ccc3c(N4C[C@@H](C)O[C@@H](C)C4)nc(N4CCOC[C@@H]4C)nc3n2)cc1CO` [Example 1p]: under 100 nM.
On the same count and under the same terms, the same measure for `C=C(C)CNc1ccc2c(N3CCOCC3)nc(N3C[C@@H](C)O[C@@H](C)C3)nc2n1` [Example 2v]: under 10000 nM; for `COc1ccc(-c2ccc3c(N4CCOCC4)nc(N4C[C@@H](C)O[C@@H](C)C4)nc3n2)cc1F` [Example 1w]: under 1000 nM; for `C[C@@H]1CN(c2nc(N3CCOCC3)c3ccc(Nc4ccsc4)nc3n2)C[C@H](C)O1` [Example 2aq]: under 1000 nM.
In the case of `C[C@@H]1CN(c2nc(N3CCOCC3)c3ccc(NC(=O)c4cnc5ccccc5n4)nc3n2)C[C@H](C)O1` [Example 5e], the IC50 was under 10000 nM.
Take `C[C@@H]1CN(c2nc(N3CCOCC3)c3ccc(Nc4ccc(C5SCCS5)cc4)nc3n2)C[C@H](C)O1` [Example 2ae]: the IC50 is under 10000 nM.
On to `C[C@@H]1CN(c2nc(N3CCOCC3)c3ccc(-c4ccc([N+](=O)[O-])cc4)nc3n2)C[C@H](C)O1` [Example 1z], for which the IC50 was under 1000 nM.
As for `COC(=O)c1ccc(Nc2ccc3c(N4CCOCC4)nc(N4C[C@@H](C)O[C@@H](C)C4)nc3n2)o1` [Example 2an], the IC50 was under 10000 nM.
The same measure, in the same setting: to `C[C@@H]1CN(c2nc(N3CCOCC3)c3ccc(Nc4ccc(C#N)cc4)nc3n2)C[C@H](C)O1` [Example 2h] belongs under 1000 nM; to `C[C@@H]1CN(c2nc(N3CCOCC3)c3ccc(-c4ccc(O)cc4)nc3n2)C[C@H](C)O1` [Example 1l], under 100 nM.
`C[C@@H]1CN(c2nc(N3CCOCC3)c3ccc(-c4ccoc4)nc3n2)C[C@H](C)O1` [Example 1aa]: the half-maximal inhibitory concentration (IC50) was under 1000 nM.
On to `C/C=C/C(=O)Nc1ccc2c(N3CCOCC3)nc(N3C[C@@H](C)O[C@@H](C)C3)nc2n1` [Example 5c], for which the IC50 is under 1000 nM.
Take `CC(=O)Nc1ccc2c(N3CCOCC3)nc(N3C[C@@H](C)O[C@@H](C)C3)nc2n1` [Example 5f]: the 50% inhibitory concentration (IC50) was under 10000 nM.
In the case of `C[C@@H]1CN(c2nc(N3CCOCC3)c3ccc(Nc4cccc(C(=O)c5ccccc5)c4)nc3n2)C[C@H](C)O1` [Example 2m], the IC50 was under 10000 nM.
On the same count and under the same terms, the same measure for `C[C@@H]1CN(c2nc(N3CCOCC3)c3ccc(NC4CC4)nc3n2)C[C@H](C)O1` [Example 2ah]: under 1000 nM.
With `C[C@@H]1CN(c2nc(N3CCOCC3)c3ccc(N)nc3n2)C[C@H](C)O1` [Example 3a], the IC50 was under 1000 nM.
On the same count and under the same terms, the same measure for `COc1ccc(-c2ccc3c(N4C[C@@H](C)O[C@@H](C)C4)nc(N4CCOCC4)nc3n2)cc1CO` [Example 1ae]: under 1000 nM; for `C[C@@H]1CN(c2nc(N3CCOCC3)c3ccc(Nc4ccnc(-c5cccnc5)n4)nc3n2)C[C@H](C)O1` [Example 2aw]: under 1000 nM; for `CC(C)c1cccc(Nc2ccc3c(N4CCOCC4)nc(N4C[C@@H](C)O[C@@H](C)C4)nc3n2)c1` [Example 2n]: under 1000 nM.
Regarding `C[C@@H]1CN(c2nc(N3CCOCC3)c3ccc(Nc4ccncn4)nc3n2)C[C@H](C)O1` [Example 2bb], the IC50 was under 1000 nM.
Consider `Cc1ccc(-c2ccc3c(N4CCOCC4)nc(N4CCCC[C@@H]4C)nc3n2)cc1` [Example 1s], for which the IC50 was under 1000 nM.
With `C[C@@H]1CN(c2nc(N3CCOCC3)c3ccc(Nc4cccc5cccnc45)nc3n2)C[C@H](C)O1` [Example 2o], the IC50 was under 10000 nM.
Consider `C[C@H]1CCCCN1c1nc(N2CCOCC2)c2ccc(N)nc2n1` [Example 3b], for which the IC50 is under 1000 nM.
Same read-out and setting: to `C[C@@H]1CN(c2nc(N3CCOCC3)c3ccc(N(C)C)nc3n2)C[C@H](C)O1` [Example 2d] belongs under 10000 nM; to `C[C@@H]1CN(c2nc(N3CCOCC3)c3ccc(Nc4nc[nH]c4C#N)nc3n2)C[C@H](C)O1` [Example 2ar], under 1000 nM; to `C[C@@H]1CN(c2nc(N3CCOCC3)c3ccc(NC4CCCCC4)nc3n2)C[C@H](C)O1` [Example 2af], under 1000 nM.
The same measure, in the same setting: to `CCCCOc1ccc2c(N3CCOCC3)nc(N3C[C@@H](C)O[C@@H](C)C3)nc2n1` [Example 7] belongs under 10000 nM.
For the compound `Cc1cc(Nc2ccc3c(N4CCOCC4)nc(N4C[C@@H](C)O[C@@H](C)C4)nc3n2)no1` [Example 2x], the IC50 is under 10000 nM.
Take `C[C@@H]1CN(c2nc(N3CCOCC3)c3ccc(-c4cccc5ccccc45)nc3n2)C[C@H](C)O1` [Example 1an]: the IC50 is under 1000 nM.
`C[C@@H]1CN(c2nc(N3CCOCC3)c3ccc(-c4ccc(Cl)s4)nc3n2)C[C@H](C)O1` [Example 1al]: the IC50 was under 1000 nM.
The same measure, in the same setting: to `Cc1cc(-c2ccc3c(N4CCOCC4)nc(N4C[C@@H](C)O[C@@H](C)C4)nc3n2)cs1` [Example 1y] belongs under 1000 nM.

A further assay relates to phosphorylation of Serine 473 in Akt in MDA-MB-468 cells. The assay is described as follows: In Vitro phospho-Ser473 Akt Assay (Acumen Explorer). Format: cell-based. Particulars: Homo sapiens, MDA-MB-468, read-out: IC50 values against mTOR (phospho-Ser473 Akt assay).
As to `COc1ccc(-c2ccc3c(N4CCOC[C@@H]4C)nc(N4CCCC(c5ccccc5)C4)nc3n2)cc1CO` (stereo partly drawn) [Example 28j], the IC50 was under 11000 nM.
Consider `COc1ccc(-c2ccc3c(N4CCOC[C@@H]4C)nc(Nc4ccncn4)nc3n2)cc1CO` [Example 28n], for which the half-maximal inhibitory concentration (IC50) was under 11000 nM.
For the compound `COCc1cccc(-c2nc(N3CCOC[C@@H]3C)c3ccc(-c4ccc(OC)c(CO)c4)nc3n2)c1` [Example 29l], the 50% inhibitory concentration (IC50) was under 11000 nM.
Regarding `Cc1ccc(-c2cnc3c(N4CCOC[C@@H]4C)nc(N4C[C@@H](C)O[C@@H](C)C4)nc3n2)cc1` [Example 22b], the IC50 was under 11000 nM.
The same measure, in the same setting: the same measure for `COc1ccc(-c2ccc3c(N4CCOCC4C)nc(N4CCOC[C@@H]4C)nc3n2)cc1CNC1CCOCC1` (stereo partly drawn) [Example 14aq]: under 100 nM; for `C[C@H]1COCCN1c1nc(-c2ccncc2)nc2nc(-c3cccc(CO)c3)ccc12` [Example 29q]: under 11000 nM; for `COc1ccc(-c2ccc3c(N4CCOC[C@@H]4C)nc(-c4cccc([N+](=O)[O-])c4)nc3n2)cc1CO` [Example 29i]: under 11000 nM.
For `CC(C)CC(=O)NCc1cc(-c2ccc3c(N4CCOC[C@@H]4C)nc(N4CCOC[C@@H]4C)nc3n2)ccc1F` [Example 15y], the IC50 was under 11000 nM.
On the same count and under the same terms, to `COC(=O)c1cncn1-c1nc(N2CCOC[C@@H]2C)c2ccc(-c3ccc(OC)c(CO)c3)nc2n1` [Example 28az] belongs under 11000 nM; to `CC(C)C(=O)NCc1cccc(-c2ccc3c(N4CCOC[C@@H]4C)nc(N4CCOC[C@@H]4C)nc3n2)c1` [Example 15d], under 11000 nM.
For the compound `C[C@H]1COCCN1c1nc(N2CCC(CO)CC2)nc2nc(-c3cccc(C(N)=O)c3)ccc12` [Example 12h], the IC50 is under 11000 nM.

The values are drawn from patent US20080194546A1, “Pyrido-, Pyrazo- and Pyrimido-Pyrimidine Derivatives as mTOR Inhibitors” (KuDOS Pharmaceuticals Limited, priority 2005, published 2008).
